# Measurements reported in ChEMBL document CHEMBL4425100, “Design, Synthesis, and Evaluation of in Vitro and in Vivo Anticancer Activity of 4-Substituted Coumarins: A Novel Class of Potent Tubulin Polymerization Inhibitors” (J Med Chem, 2016).
# pIC50: −log10 of the molar value. Active and inactive are the calls of the source. The calls are words filed in the database; no cut-off is given here.
# Tests used:
# HepG2 = assay: cells; settings: Homo sapiens, HepG2, 24 h
# Description: Antiproliferative activity against human HepG2 cells after 24 hrs by MTT assay
# SK-OV-3 = assay: Antiproliferative activity against human SKOV3 cells after 24 hrs by MTT assay; format: functional, cell-based; settings: SK-OV-3, 24 h
# HCT-116 = assay: Antiproliferative activity against human HCT116 cells after 24 hrs by MTT assay; format: functional, cell-based; settings: HCT-116, 24 h
# Tubulin (Homo sapiens) [1] = target: T1, Tubulin (Homo sapiens) (UniProt P68371+Q9H4B7+P0DPH7+P68366+Q13509+Q71U36+P04350+Q3ZCM7+P07437+P68363+Q9BQE3+Q6PEY2+Q13885+Q9BVA1+Q9BUF5); assay: Binding affinity to tubulin in human HepG2 cells assessed as induction of abnormal chromosomal aggregation at 100 nM after 16 to 24 hrs by DAPI staining-based immunofluorescence microscopy; format: cell-based
# [2] = Solubility of the compound in […] ethanol/[…] Tween-80 at 1 mg; format: physicochemical
# Tubulin (Homo sapiens) [3] = target: T1, Tubulin (Homo sapiens); assay: Binding affinity to tubulin in human HepG2 cells assessed as inhibition of microtubule network formation in cytosol at 100 nM after 16 to 24 hrs by DAPI staining-based immunofluorescence microscopy; format: cell-based
# [4] = Toxicity in mouse xenografted with human H460 cells assessed as body weight loss at 2.5 to 5 mg/kg, iv qd administered every 2 days measured daily during compound dosing; format: organism-based; settings: in vivo, 48 h
# [5] = Toxicity in mouse allografted with mouse C26 cells assessed as mortality at 2.5 to 5 mg/kg, iv qd administered every 2 days measured daily during compound dosing; format: organism-based; settings: in vivo, 48 h
# Tubulin (Sus scrofa) [6] = target: T2, Tubulin (Sus scrofa) (UniProt P02554+P02550); assay: Inhibition of porcine brain tubulin polymerization at 10 uM preincubated for 5 mins followed by GTP addition measured every 2 mins by spectrophotometry
# [7] = Toxicity in mouse xenografted with human H460 cells assessed as mortality at 2.5 to 5 mg/kg, iv qd administered every 2 days measured daily during compound dosing; format: organism-based; settings: in vivo, 48 h
# [8] = Toxicity in mouse allografted with mouse C26 cells assessed as body weight loss at 2.5 to 5 mg/kg, iv qd administered every 2 days measured daily during compound dosing; format: organism-based; settings: in vivo, 48 h
# HCT-8 = assay: Cytotoxicity against vinblastine resistant/P-gp overexpressing human HCT8 cells assessed as reduction in cell growth after 24 hrs by MTT assay; format: functional, cell-based; settings: HCT-8, 24 h
# A2780/Taxol = assay: Cytotoxicity against beta-tubulin 3 overexpressing human A2780T cells assessed as reduction in cell growth after 24 hrs by MTT assay; format: functional, cell-based
# Tubulin (Sus scrofa) [9] = target: T2, Tubulin (Sus scrofa); assay: Inhibition of porcine brain tubulin polymerization preincubated for 5 mins followed by GTP addition measured every 2 mins by spectrophotometry
# [10] = target: Tubulin beta (Homo sapiens) (UniProt P68371+Q9H4B7+Q13509+P04350+Q3ZCM7+P07437+Q13885+Q9BVA1+Q9BUF5+A6NNZ2); assay: Competitive binding affinity to beta-tubulin in human HepG2 cells assessed as disappearance of EBI-protein adducts preincubated for 2 hrs followed by EBI addition measured after […] by Western blot analysis; format: cell-based
# Tubulin (Homo sapiens) [11] = target: T1, Tubulin (Homo sapiens); assay: Binding affinity to microtubule in human HepG2 cells assessed as inhibition of spindle formation after 24 hrs by immunofluorescence staining-based confocal microscopy; format: cell-based
# Tubulin (Homo sapiens) [12] = target: T1, Tubulin (Homo sapiens); assay: Inhibition of microtubule polymerization in human HepG2 cells after 24 hrs by immunofluorescence staining-based confocal microscopy; format: cell-based
# T2 sequence (P02550 whole entry, looked up): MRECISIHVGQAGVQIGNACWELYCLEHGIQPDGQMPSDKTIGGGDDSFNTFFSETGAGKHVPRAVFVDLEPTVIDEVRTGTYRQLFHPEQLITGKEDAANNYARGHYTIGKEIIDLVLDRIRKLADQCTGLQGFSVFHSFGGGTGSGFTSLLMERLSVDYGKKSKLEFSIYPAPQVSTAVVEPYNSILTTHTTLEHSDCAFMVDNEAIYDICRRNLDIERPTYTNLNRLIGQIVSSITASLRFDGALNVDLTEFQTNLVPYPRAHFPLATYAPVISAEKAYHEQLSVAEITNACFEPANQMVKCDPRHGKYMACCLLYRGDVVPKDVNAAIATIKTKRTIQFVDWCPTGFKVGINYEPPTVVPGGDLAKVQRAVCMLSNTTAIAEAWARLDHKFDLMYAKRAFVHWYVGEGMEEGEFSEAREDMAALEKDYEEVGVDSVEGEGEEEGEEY
# T2 sequence (P02554 whole entry, looked up): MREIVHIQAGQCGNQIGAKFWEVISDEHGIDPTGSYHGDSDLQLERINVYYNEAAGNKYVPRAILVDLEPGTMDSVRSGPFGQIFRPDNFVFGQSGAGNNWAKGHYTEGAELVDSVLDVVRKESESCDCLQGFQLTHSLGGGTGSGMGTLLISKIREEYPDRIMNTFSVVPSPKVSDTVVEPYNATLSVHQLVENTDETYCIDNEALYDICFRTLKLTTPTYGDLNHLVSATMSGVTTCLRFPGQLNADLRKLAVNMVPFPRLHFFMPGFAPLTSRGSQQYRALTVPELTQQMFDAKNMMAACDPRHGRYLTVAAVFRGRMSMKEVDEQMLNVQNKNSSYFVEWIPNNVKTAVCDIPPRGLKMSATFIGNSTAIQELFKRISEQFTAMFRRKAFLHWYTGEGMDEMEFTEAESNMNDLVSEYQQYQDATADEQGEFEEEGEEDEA
smiles,measurement,setting,value
COc1ccc(N(C)c2cc(=O)oc3ccccc23)cc1OCCN1CCOCC1,pIC50,HepG2,< 5.30
same,pIC50,SK-OV-3,< 5.30
same,pIC50,HCT-116,< 5.30
C/C=C/C(=O)Oc1cc(N(C)c2cc(=O)oc3ccccc23)ccc1OC,Activity,Tubulin (Homo sapiens) [1],Active
same,solubility,[2],Soluble
same,inhibition of microtubule network formation (active/inactive),Tubulin (Homo sapiens) [3],Active
COC(=O)CCCC(=O)Nc1cc(N(C)c2cc(=O)oc3ccccc23)ccc1OC,Activity,Tubulin (Homo sapiens) [1],Active
same,solubility,[2],Soluble
same,inhibition of microtubule network formation (active/inactive),Tubulin (Homo sapiens) [3],Active
COc1ccc(N(C)c2nc(C)nc3ccccc23)cc1 [VERUBULIN],Activity,[4],Toxic
same,Activity,[5],Toxic
same,inhibition,Tubulin (Sus scrofa) [6],Active
same,Activity,[7],Toxic
same,Activity,[8],Toxic
same,pIC50,HepG2,8.34
same,pIC50,SK-OV-3,8.49
same,pIC50,HCT-116,8.37
CCC(=O)Oc1cc(N(C)c2cc(=O)oc3ccccc23)ccc1OC,solubility,[2],Insoluble
COc1ccc(N(C)c2cc(=O)oc3ccccc23)cc1O,solubility,[2],Insoluble
COc1ccc(N(C)c2cc(=O)oc3ccccc23)cc1OC(=O)C=C(C)C,solubility,[2],Insoluble
CCCCCCCCCC(=O)Nc1cc(N(C)c2cc(=O)oc3ccccc23)ccc1OC,solubility,[2],Insoluble
COc1cc2c(c(OC)c1OC)-c1ccc(OC)c(=O)cc1[C@@H](NC(C)=O)CC2 [COLCHICINE],pIC50,HCT-8,5.61
same,pIC50,HepG2,7.37
same,pIC50,SK-OV-3,7.28
same,pIC50,A2780/Taxol,5.06
C=C(C)C(=O)Oc1cc(N(C)c2cc(=O)oc3ccccc23)ccc1OC,solubility,[2],Insoluble
CC/C=C(\C)C(=O)Nc1cc(N(C)c2cc(=O)oc3ccccc23)ccc1OC,solubility,[2],Insoluble
CCCCCC(=O)Nc1cc(N(C)c2cc(=O)oc3ccccc23)ccc1OC,solubility,[2],Insoluble
COc1ccc(N(C)c2cc(=O)oc3ccccc23)cc1OC(=O)C1CC1,solubility,[2],Insoluble
CC/C=C(\C)C(=O)Oc1cc(N(C)c2cc(=O)oc3ccccc23)ccc1OC,Activity,Tubulin (Homo sapiens) [1],Active
same,solubility,[2],Soluble
same,inhibition of microtubule network formation (active/inactive),Tubulin (Homo sapiens) [3],Active
COC(=O)CCCC(=O)Oc1cc(N(C)c2cc(=O)oc3ccccc23)ccc1OC,Activity,Tubulin (Homo sapiens) [1],Active
same,solubility,[2],Soluble
same,inhibition of microtubule network formation (active/inactive),Tubulin (Homo sapiens) [3],Active
C=CCCC(=O)Oc1cc(N(C)c2cc(=O)oc3ccccc23)ccc1OC,solubility,[2],Insoluble
C=CC(=O)Oc1cc(N(C)c2cc(=O)oc3ccccc23)ccc1OC,solubility,[2],Insoluble
COc1ccc(N(C)c2cc(=O)oc3ccccc23)cc1NC(=O)CCCCCl,Activity,Tubulin (Homo sapiens) [1],Active
same,inhibition,Tubulin (Sus scrofa) [9],Dose-dependent effect
same,solubility,[2],Soluble
same,Activity,[10],Dose-dependent effect
same,inhibition,Tubulin (Homo sapiens) [11],Dose-dependent effect
same,inhibition of microtubule network formation (active/inactive),Tubulin (Homo sapiens) [3],Active
same,inhibition,Tubulin (Homo sapiens) [12],Dose-dependent effect
CCCCC(=O)Oc1cc(N(C)c2cc(=O)oc3ccccc23)ccc1OC,solubility,[2],Insoluble
